Source: US11191769B2, “Fused thiophene compounds” (BioTheryX, Inc., priority 2018, dated 2021)

Legend:
Format in all cases: cell-based
[1] = target: T1, IKAROS (Homo sapiens, UniProt Q13422+Q96SW2); experiment: IKAROS degradation assay (Western blot, MV-4-11 cells); conditions: 6-8 hours; for IKAROS % degradation at 1 µM: MV4-11, 1 μM
T1 construct: endogenous in cells; host or cells: MV-4-11
Protocol: (§1) MV-4-11 cells were grown in RPMI 1640 media supplemented with 10% fetal bovine serum, streptomycin and penicillin.
(§2) Cells were cultured at approximately 10^6 cells per mL and incubated in DMSO or the indicated compound for 6-8 hours. Whole cell extracts were prepared using RIPA buffer according to manufacturer's protocol (Pierce). Briefly, 3×10^6 cells were washed once in PBS, the cell pellets were resuspended in RIPA buffer and allowed to incubate for 15 minutes on ice. Cells debris was removed by centrifugation and the cleared whole cell lysates were transferred to new tubes for further analysis.
(§3) For Western blot analysis, whole cell protein extracts were separated on 4-12% SDS-polyacrylamide gels, transferred to nitrocellulose and probed with the indicated primary antibodies. Membranes were subsequently washed and probed with the appropriate IRDye secondary antibodies (LI-COR). The signal was detected using the Odyssey Imaging System (LI-COR).
(§4) The following antibodies were used in these studies: Anti-eRF3/GSPT1: Abcam, ab126090 (Cambridge, Mass.); Anti-Ikaros: Abcam, ab191394 (Cambridge, Mass.); Anti-CK1α: Abcam, ab108296 (Cambridge, Mass.); β-actin (8H10D10) mouse monoclonal antibody: Cell Signaling Technology, #3700 (Danvers, Mass.); IRDye 680RD Goat anti-rabbit antibody: LI-COR, 926-68071 (Lincoln, Nebr.); IRDye 800CW Goat anti-mouse antibody: LI-COR, 926-32210 (Lincoln, Nebr.).
(§5) In each of Tables 1-4, the % degradation values are reported as “A”, “B”, “C”, or “D”. “A” represents a % degradation value of less than 25% (value<25%). “B” represents a % degradation value of equal to or more than 25% and less than 50% (25%≤value<50%). “C” represents a % degradation value of equal to or more than 50% and less than 75% (50%≤value <75%). “D” represents a % degradation value of equal to or more than 75% (value≥75%).

[2] = target: T2, CK1α (Homo sapiens, UniProt P48729+Q96SW2); experiment: CK1α degradation assay (Western blot, MV-4-11 cells); conditions: MV4-11, 6-8 hours
T2 construct: Whole cell extracts were prepared using RIPA buffer; endogenous in cells; host or cells: MV-4-11
T2 sequence (P48729 whole entry): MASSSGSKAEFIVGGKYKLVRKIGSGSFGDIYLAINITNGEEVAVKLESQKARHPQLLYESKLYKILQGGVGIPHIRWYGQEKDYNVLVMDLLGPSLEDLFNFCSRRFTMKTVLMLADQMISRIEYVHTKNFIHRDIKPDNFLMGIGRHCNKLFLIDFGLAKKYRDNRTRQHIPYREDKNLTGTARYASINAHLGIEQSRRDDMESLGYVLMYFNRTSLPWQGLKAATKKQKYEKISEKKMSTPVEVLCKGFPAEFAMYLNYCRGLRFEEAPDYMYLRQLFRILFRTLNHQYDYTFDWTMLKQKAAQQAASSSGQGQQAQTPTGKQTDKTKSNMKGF
T2 sequence (Q96SW2 whole entry): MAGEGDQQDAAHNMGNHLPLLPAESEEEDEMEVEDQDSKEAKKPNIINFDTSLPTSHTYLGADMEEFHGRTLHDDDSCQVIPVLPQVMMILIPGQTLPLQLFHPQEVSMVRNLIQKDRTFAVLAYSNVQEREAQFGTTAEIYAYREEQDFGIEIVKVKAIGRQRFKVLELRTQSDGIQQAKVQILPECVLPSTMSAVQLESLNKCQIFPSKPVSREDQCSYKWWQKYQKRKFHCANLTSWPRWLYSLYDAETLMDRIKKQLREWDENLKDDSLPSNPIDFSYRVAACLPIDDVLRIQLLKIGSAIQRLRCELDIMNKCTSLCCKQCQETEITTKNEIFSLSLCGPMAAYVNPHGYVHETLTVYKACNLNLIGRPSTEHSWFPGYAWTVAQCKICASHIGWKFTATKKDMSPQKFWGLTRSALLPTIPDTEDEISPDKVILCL
T2 sequence (Q16531 whole entry partner): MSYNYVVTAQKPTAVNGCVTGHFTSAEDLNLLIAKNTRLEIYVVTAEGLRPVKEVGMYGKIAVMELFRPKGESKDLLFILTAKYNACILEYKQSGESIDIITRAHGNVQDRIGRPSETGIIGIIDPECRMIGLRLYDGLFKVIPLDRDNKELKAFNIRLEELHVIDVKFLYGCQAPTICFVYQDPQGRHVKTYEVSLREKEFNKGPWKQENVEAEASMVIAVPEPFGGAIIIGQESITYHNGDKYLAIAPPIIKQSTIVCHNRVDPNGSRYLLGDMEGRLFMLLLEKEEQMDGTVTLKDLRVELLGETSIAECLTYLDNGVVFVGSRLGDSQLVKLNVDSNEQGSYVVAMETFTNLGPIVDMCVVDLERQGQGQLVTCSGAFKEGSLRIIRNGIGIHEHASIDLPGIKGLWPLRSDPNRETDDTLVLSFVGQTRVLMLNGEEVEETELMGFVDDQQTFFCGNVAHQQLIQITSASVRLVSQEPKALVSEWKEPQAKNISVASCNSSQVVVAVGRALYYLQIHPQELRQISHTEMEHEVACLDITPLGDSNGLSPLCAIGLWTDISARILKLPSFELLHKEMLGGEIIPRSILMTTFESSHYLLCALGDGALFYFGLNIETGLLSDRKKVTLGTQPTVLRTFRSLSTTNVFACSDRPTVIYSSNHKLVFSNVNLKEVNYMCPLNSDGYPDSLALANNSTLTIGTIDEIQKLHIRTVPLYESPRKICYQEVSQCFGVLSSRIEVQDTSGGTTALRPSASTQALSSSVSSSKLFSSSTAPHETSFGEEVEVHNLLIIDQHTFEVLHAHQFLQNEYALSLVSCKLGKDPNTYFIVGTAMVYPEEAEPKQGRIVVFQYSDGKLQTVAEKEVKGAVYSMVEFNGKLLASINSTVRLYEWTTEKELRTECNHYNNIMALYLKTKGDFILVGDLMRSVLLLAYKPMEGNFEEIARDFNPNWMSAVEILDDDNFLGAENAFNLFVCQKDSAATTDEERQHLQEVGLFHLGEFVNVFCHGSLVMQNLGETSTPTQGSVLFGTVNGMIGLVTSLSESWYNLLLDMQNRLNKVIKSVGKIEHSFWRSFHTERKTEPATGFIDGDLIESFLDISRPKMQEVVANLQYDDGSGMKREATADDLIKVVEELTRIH
Protocol: as §1, §2, §3, §4, §5

[3] = tested on: MOLM-13 cells; experiment: MOLM-13 cell viability assay (CellTiter-Glo); conditions: Homo sapiens, MOLM-13, 72 h, 3 days, % of DMSO control
Protocol: MOLM-13 cells were cultured in RPMI 1640 media supplemented with 10% fetal bovine serum, streptomycin and penicillin, and were plated in white walled 96-well plates at 2500 cells/well. Cells were incubated in DMSO (control) or the indicated compound for 3 days at 37° C. and 5% CO2. Following the incubation period, 100 μL of CellTiterGlow (CTG) reagent (CellTiter-Glo® Luminescent Cell Viability Assay, Promega (Madison, Wis.)) was added to each well. Following a 10 minutes incubation with shaking, luminescence was measured using the EnVision Multimode plate reader.
The MOLM-13 cell viability values as % DMSO are reported as “A”, “B”, “C”, or “D”. “A” represents a % viability value of less than 25% (value<25%). “B” represents a % viability value of equal to or more than 25% and less than 50% (25%≤value<50%). “C” represents a % viability value of equal to or more than 50% and less than 75% (50%≤value<75%). “D” represents a % viability value of equal or more than 75% (value≥75%).

[4] = tested on: IL-2; experiment: IL-2 fold-change assay, anti-CD3 stimulated PBMCs, Mesoscale; conditions: PBMC, PBMCs on anti-human CD3 (OKT3) coated plates, 24 h, fold difference from the DMSO control
Protocol: For the IL-2 analysis, 96 well plates were precoated with 1 μg/mL anti-human CD3 antibody (OKT3, eBioscience Inc., San Diego, Calif.). After washing with PBS, the indicated compound was added (50 μL/well) followed by PBMCs diluted at 3-4 million cells/mL (150 μL/well). Plates were incubated for 24 h and the supernatants collected for Mesoscale IL-2 analysis. IL-2 activity is measured as fold difference from the DMSO control.
(§6) In each of Tables 5-7, the % inhibition values are reported as “A”, “B”, “C”, or “D”. “A” represents a % inhibition value of less than 50% (value <50%). “B” represents a % inhibition value of equal to or more than 50% and less than 70% (50%≤value<70%). “C” represents a % inhibition value of equal to or more than 70% and less than 90% (70%≤value<90%). “D” represents a % inhibition value of equal or more than 90% (value≥90%). In Table 8, the fold-change values are reported as “A”, “B”, “C”, or “D”. “A” represents a fold-change value of equal to or less than 1 (value≤1). “B” represents a fold-change value of more than 1 and equal to or less than 2 (1<value≤2). “C” represents a fold-change value of more than 2 and equal to or less than 3 (2<value≤3). “D” represents a fold-change value of more than 3 (value>3).

[5] = tested on: IL-6; experiment: IL-6 inhibition assay, LPS-induced PBMCs or CD14+ monocytes, Meso Scale; conditions: 1 h pretreatment, 100 ng/mL LPS 18-24 h, supernatant
Protocol: (§7) Either frozen primary blood mononuclear cells (PBMCs) or frozen CD14+ mobilized peripheral blood monocytes were purchased from AllCells (PB003F, Normal Peripheral Blood MNC (Alameda, Calif.)). Cells were quick thawed, washed 1-time with RPMI-1640 (10% FBS/1% Pen-Strep) and plated in 96 well plates at 200,000 cells per well. Cells were pretreated with DMSO only or with the indicated compound for 1 h and then induced with 100 ng/mL lipopolysaccharide (LPS) for 18-24 h. The supernatant was analyzed for IL-1β, IL-6, and TNFα, using Meso Scale assay according to manufacturer's protocol. The negative control wells were treated with DMSO.
as §6

[6] = tested on: IL-1β; experiment: IL-1β inhibition assay, LPS-induced PBMCs or CD14+ monocytes, Meso Scale; conditions: 1 h pretreatment, 100 ng/mL LPS 18-24 h, supernatant, read-out: I1-1β % Inhibition at 10 μM
Protocol: as §7, §6

[7] = target: T3, GSPT1 (Homo sapiens, UniProt P15170+Q96SW2); experiment: GSPT1 degradation assay (Western blot, MV-4-11 cells); conditions: 6-8 hours
T3 construct: Whole cell extracts were prepared using RIPA buffer; endogenous in cells; host or cells: MV-4-11
T3 sequence (P15170 whole entry): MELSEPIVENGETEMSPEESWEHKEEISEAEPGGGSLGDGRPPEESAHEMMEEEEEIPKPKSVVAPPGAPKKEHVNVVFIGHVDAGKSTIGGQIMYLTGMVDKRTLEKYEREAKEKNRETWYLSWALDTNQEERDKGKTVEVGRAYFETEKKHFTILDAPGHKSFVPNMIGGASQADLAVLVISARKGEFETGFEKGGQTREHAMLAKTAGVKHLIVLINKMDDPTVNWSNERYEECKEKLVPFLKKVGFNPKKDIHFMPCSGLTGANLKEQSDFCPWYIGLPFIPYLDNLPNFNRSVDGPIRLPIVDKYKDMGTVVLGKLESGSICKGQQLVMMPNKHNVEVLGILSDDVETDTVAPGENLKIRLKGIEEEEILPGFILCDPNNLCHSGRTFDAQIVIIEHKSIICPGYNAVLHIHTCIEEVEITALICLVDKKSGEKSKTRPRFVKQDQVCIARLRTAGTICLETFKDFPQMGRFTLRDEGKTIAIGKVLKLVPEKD
T3 sequence (Q96SW2 whole entry): as the sequence (Q96SW2 whole entry) above
T3 sequence (Q16531 whole entry partner): as the sequence (Q16531 whole entry partner) above
Protocol: as §1, §2, §3, §4, §5

[8] = tested on: TNFα; experiment: TNF-α inhibition assay, LPS-induced PBMCs or CD14+ monocytes, Meso Scale; conditions: 1 h pretreatment, 100 ng/mL LPS 18-24 h, supernatant
Protocol: as §7, §6

T1 sequence (Q13422 whole entry): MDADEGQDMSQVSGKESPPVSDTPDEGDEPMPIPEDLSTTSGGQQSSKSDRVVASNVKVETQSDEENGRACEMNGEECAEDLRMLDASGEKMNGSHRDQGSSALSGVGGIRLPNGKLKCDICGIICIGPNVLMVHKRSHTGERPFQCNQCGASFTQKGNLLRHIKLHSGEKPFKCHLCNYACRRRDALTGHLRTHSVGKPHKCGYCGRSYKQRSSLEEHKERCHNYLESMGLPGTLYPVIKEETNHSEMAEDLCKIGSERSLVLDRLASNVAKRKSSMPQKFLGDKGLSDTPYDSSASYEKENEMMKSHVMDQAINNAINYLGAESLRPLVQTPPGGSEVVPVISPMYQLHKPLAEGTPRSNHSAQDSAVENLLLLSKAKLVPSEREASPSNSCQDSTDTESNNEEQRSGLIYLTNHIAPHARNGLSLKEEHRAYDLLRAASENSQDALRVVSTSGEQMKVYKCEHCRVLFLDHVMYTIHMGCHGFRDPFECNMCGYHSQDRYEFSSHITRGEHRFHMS
T1 sequence (Q96SW2 whole entry): as the sequence (Q96SW2 whole entry) above
T1 sequence (Q16531 whole entry partner): as the sequence (Q16531 whole entry partner) above

Compound | IKAROS % degradation at 1 µM [1] [%] | percent degradation at 1 µM [2] [%] | viability at 10 µM [3] [%] | fold induction at 10 µM [4] | inhibition at 10 µM [5] [%] | inhibition at 10 µM [6] [%] | GSPT1 % Degradation at 1 μM [7] | inhibition at 10 µM [8] [%] | IKAROS % Degradation at 10 μM ([1]; 10 μM)
O=C1CC[C@H](N2Cc3c(csc3COc3ccc(CN4CCOCC4)cc3)C2=O)C(=O)N1 [Compound 1, (S)-3-(1-((4-(morpholinomethyl)phenoxy)methyl)-4-oxo-4H-thieno[3,4-c]pyrrol-5(6H)-yl)piperidine-2,6-dione] | ≥ 75 | ≥ 75 | 50 to 75 | 1 to 2 | 50 to 70 | > 90 | C (“C” represents a % degradation value of equal to or more than 50% and less than 75% (50%≤value <75%)) | – | –
O=C1CC[C@H](N2Cc3c(OCc4ccc(CN5CCOCC5)cc4)csc3C2=O)C(=O)N1 [Compound 2, (S)-3-(3-((4-(morpholinomethyl)benzyl)oxy)-6-oxo-4H-thieno[2,3-c]pyrrol-5(6H)-yl)piperidine-2,6-dione] | – | – | – | 1 to 2 | – | < 50 | B (“B” represents a % degradation value of equal to or more than 25% and less than 50% (25%≤value<50%)) | < 50 | –
O=C1CCC(N2Cc3c(CCc4ccc(CN5CCOCC5)cc4)csc3C2=O)C(=O)N1 (stereo not shown) [Compound 4] | 25 to 50 | 25 to 50 | – | 2 to 3 | – | – | B (“B” represents a % degradation value of equal to or more than 25% and less than 50% (25%≤value<50%)) | – | –
CCN(CC)Cc1ccc(OCc2scc3c2CN([C@H]2CCC(=O)NC2=O)C3=O)cc1 [Compound 14, (S)-3-(1-((4-((diethylamino)methyl)phenoxy)methyl)-4-oxo-4H-thieno[3,4-c]pyrrol-5(6H)-yl)piperidine-2,6-dione] | – | 50 to 75 | 50 to 75 | 2 to 3 | < 50 | 70 to 90 | – | 70 to 90 | B (“B” represents a % degradation value of equal to or more than 25% and less than 50% (25%≤value<50%))
CC1CN(Cc2ccc(OCc3scc4c3CN([C@H]3CCC(=O)NC3=O)C4=O)cc2)CC(C)O1 (stereo partly drawn) [Compound 17, (3S)-3-(1-((4-((2,6-dimethylmorpholino)methyl)phenoxy)methyl)-4-oxo-4H-thieno[3,4-c]pyrrol-5(6H)-yl)piperidine-2,6-dione] | 50 to 75 | ≥ 75 | 50 to 75 | 1 to 2 | < 50 | 70 to 90 | – | > 90 | –
CC1COCC(C)N1Cc1ccc(OCc2scc3c2CN([C@H]2CCC(=O)NC2=O)C3=O)cc1 (stereo partly drawn) [Compound 19, (3S)-3-(1-((4-((3,5-dimethylmorpholino)methyl)phenoxy)methyl)-4-oxo-4H-thieno[3,4-c]pyrrol-5(6H)-yl)piperidine-2,6-dione] | 50 to 75 | ≥ 75 | 50 to 75 | ≤ 1 | < 50 | 70 to 90 | C (“C” represents a % degradation value of equal to or more than 50% and less than 75% (50%≤value <75%)) | 70 to 90 | –
